# Data from patent publication US20240123022A1, “A STABLE ANTI-ANGIOGENIC AND ANTI-INFLAMMATORY PHARMACEUTICAL FORMULATION AND PHARMACEUTICAL COMBINATION FOR TREATMENT AND PREVENTION OF PSORIASIS” (priority 2021, published 2024).
# Like-named read-outs stand apart in the source and are kept apart here.
# Assays:
# HUVEC cells [1] = assay type: cell-based, human; conditions: 100-1000 μg/ml
# Method: The study was performed to determine anti-angiogenic effect of IS217 in HUVEC cell line by assessing anti-proliferative effects of test item. Here XTT assay was used to determine the cell viability in test cells. HUVEC cells were treated with the test item IS217 (100-1000 μg/ml) and bevacizumab (1 mg/ml) concentrations was used as positive controls.
# [2] = system: Imiquimod (IMQ) induced psoriasis model using Balb/c mice; assay: IMQ induced psoriasis model, routes of administration (SC, IM, IV, IP); assay type: in vivo; conditions: for TNF-α reduced to / reduction in IL-23: ear homogenate
# Method: The study was conducted in healthy, adult female Balb/c mice. All the animals were acclimatized to laboratory condition prior to experiment initiation.
# Animals were randomized into 10 groups containing 6 animals each group, based on their body weight. Approximately 63 mg of IMQ cream (5%) (containing 3.125 mg of IMQ) was weighed and applied topically each on dorsal area (shaved back) and right ear of mice for 8 days in group 3-10. Groups 1 and 2 were served as controls and were treated with appropriate vehicle. Later groups 1 and 2 were merged for better calculation purpose.
# Body weight, ear thickness and dorsal skin thickness was measured daily using digital caliper. Erythema index was recorded by mexameter and clinical scoring was also done daily for dorsal psoriatic area.
# On day 9, animals were anesthetized for blood collection followed by euthanasia by C02 asphyxiation as per in-house approved standard protocol.
# About 4 mm ear punch biopsy was collected, weighed and fixed in about 10% neutral buffer formalin for histopathological analysis (via H and E staining). Remaining ear was excised and stored at about −80° C. for inflammatory cytokine analysis. Dorsal skin was also collected, and half was kept in formalin. Spleen was also collected and weighed and kept in formalin.
# In this study three different routes i.e., SC, IM and IV at different doses ranging from 0.3, 0.6 and 1.2 mg/kg were used to see dose response curve, the results were as follows: […]
# in vitro = conditions: human, microsomes
# Method: Metabolic stability assay was performed to determine in vitro half-life and intrinsic clearance of test item. […] Following centrifugation, the supernatant was analyzed on HPLC-UV.
# [3] = system: TPA induced ear inflammation model in C57BL/6 mice; assay type: in vivo
# Source text: The experimental procedure and doses and route of administration are same as IMQ model.
# HUVEC cells [4] = assay: Tube formation assay in HUVEC cells (VEGF induced); assay type: cell-based, human; parameters: Tube formation assay results, Avg: scale not given here
# Method: HUVEC cells were used as test system to determine angiogenic effect of IS217 by assessing the inhibitory effects of test item on endothelial cells tube formation. Prior to the tube formation assay, test item of concentration ranging 0.01 μg/ml to 1000 μg/ml were used to treat endothelial cells for its cytotoxicity effect to assess suitable concentration for tube formation assay. […] The cells corresponding to positive control group were treated with bevacizumab of concentration 1000 μg/ml. The degree of angiogenesis progression was assessed based on visual pattern recognition of photomicrographs of HUVEC cells.
# [5] = Plasma stability in human plasma; assay type: in vitro ADME
# Method: Following centrifugation, the supernatant was analyzed on HPLC-UV.
# [6] = system: TPA induced ear inflammation model in C57BL/6 mice; assay: IS217 alone and in combination with methotrexate and betamethasone in TPA induced ear inflammation model; assay type: in vivo
# Method: The experimental procedure, doses and route of administration were same as IMQ model. Test item IS217 was administered subcutaneously either alone or in combination with standard methotrexate (MTX) and betamethasone (BD) to diseased animals.
# JAK-STAT pathway = assay: Z′LYTE activity assay, tyrosine kinases; assay type: biochemical
# Source text: (§1) Tyrosine kinases play key role in pathogenesis of psoriasis IS217 was investigated for possible inhibition of various tyrosine kinase, which play crucial role in pathogenesis of psoriasis. The method employed to detect the effect was Z′LYTE activity assay.
# other kinases = assay: Z′LYTE activity assay, tyrosine kinases; assay type: biochemical; conditions: low concentration tested of 10 μg/ml
# Source text: as §1
# MAPK1 (MEK 1) = assay: Z′LYTE activity assay, tyrosine kinases; assay type: biochemical; conditions: 10 μg/ml-250 μg/ml
# Source text: as §1
# Caspase 3 = assay: Caspase-3 activation assay in HaCaT cells; assay type: cell-based, human; conditions: 100 to 5000 μg/mL, 24 h and 48 h, vs untreated cells
# Source text: The study aimed to determine action of IS217 on the death mediator Caspase 3 which acts as dominant regulator during cell death induction. HaCaT cells were used as test system and in house validation assay was done by using Anthralin dissolved in DMSO (positive control).
# [7] = IS217 SC 1.2 mg/kg q.d., 10 days
substance,measurement,setting,value
"H-FAKKFAKKFK-OH [IS217, H-Phe-Ala-Lys-Lys-Phe-Ala-Lys-Lys-Phe-Lys-OH]",percentage inhibition of FBS induced proliferation of HUVEC cells,HUVEC cells [1],effective upto 1000 μg/ml only
same,ear biopsy weight,"[2]; 0.3 mg/kg SC, day 9, vs other doses and routes",maximum effect
same,"hyperkeratosis, edema, inflammatory cell infiltration and ear thickness in histopathology examination of ear","[2]; 0.3 mg/kg SC, p < 0.01",reduced
same,TNF-α reduced to,[2]; 0.6 mg/kg,13.94%
same,reduction in IL-23,[2]; 0.6 mg/kg,49.68%
same,TNF-α level in ear tissue homogenate,[2]; 1.2 mg/kg SC,partially reduced
same,"TNF-α and IL-23 levels, rete peg proliferation in histopathology examination of ear","[2]; 1.2 mg/kg SC, p < 0.01",dose lowered
same,"absolute ear thickness reduction, maximum inhibition",[2]; 1.2 mg/kg dose,80.36%
same,TNF-α reduced to,[2]; 1.2 mg/kg,24.25%
same,reduction in IL-23,[2]; 1.2 mg/kg,59.85%
same,reduction of IL-23 levels,"[2]; 0.3-1.2 mg/kg SC, by all above observations",prominent dose dependent results
same,"percentage inhibition of ear inflammation, maximum inhibitory activity",[2]; IM route,59.12%
same,body weight,"[2]; IS217 SC, IM, IV, IP, 8 days",No significant change
same,IL-17 in ear tissue homogenate,[2]; IV treatment,maximum inhibition
same,spleen weight reduction,"[2]; IV treatment group, not statistically significant",maximum reduction
same,spleen weight reduction,[2]; SC treatment groups,No effect
same,"IMQ induced hyperkeratosis, edema, Rete Peg proliferation, inflammatory cell infiltration (ear histopathology)","[2]; SC, low dose of 0.3 mg/kg",maximum reduction
same,cumulative psoriatic score of dorsal area,[2]; any treatment group,No significant reduction
same,erythema index,[2]; any treatment group,No significant reduction
same,"percentage inhibition of ear inflammation, maximum inhibitory response","[2]; low dose, from day 6",32.08%
same,IL-17A and spleen weight,"[2]; mouse, in vivo",no trend
same,half-life at 100 μg/ml,in vitro,0.799 h
same,"metabolised at 1 h, 100 μg/ml",in vitro,~58%
same,microsomal CLint at 100 μg/ml,in vitro,14.5 µL/min/mg
same,reduction in IL-23 levels in ear tissue homogenate,[3]; 0.60 mg/kg,42.12%
same,maximum ear thickness inhibition,[3]; 1.2 mg/kg,80.36%
same,MPO levels,"[3]; 1.2 mg/kg SC, conclusion of in vivo studies, model not stated",significant reduction
same,absolute ear thickness,[3]; 1.2 mg/kg-4.8 mg/kg,significant reduction
same,"ear thickness (absolute, histopathology, ear punch biopsy)","[3]; IS217 (all doses) < MTX, p < 0.001",Decreased ear
same,"Ear homogenate ELISA TNF-α, IL-23, IL-6, MPO",[3]; p < 0.01,MPO reduction
same,"Tube formation assay results, Avg",HUVEC cells [4]; 100 μg + VEGF,2.55
same,"Tube formation assay results, Avg","HUVEC cells [4]; 100 μg, without VEGF",0.33
same,"Tube formation assay results, Avg",HUVEC cells [4]; 250 μg + VEGF,1.33
same,"Tube formation assay results, Avg","HUVEC cells [4]; 250 μg, without VEGF",0.33
same,"Tube formation assay results, Avg",HUVEC cells [4]; 500 μg + VEGF,0.88
same,"Tube formation assay results, Avg","HUVEC cells [4]; 500 μg, without VEGF",0.33
same,"Tube formation assay results, Avg",HUVEC cells [4]; 1000 μg + VEGF,0.55
same,"Tube formation assay results, Avg","HUVEC cells [4]; 1000 μg, without VEGF",0.33
same,inhibition of endothelial morphogenesis on matrigel,"HUVEC cells [4]; HUVEC, 1000 μg/ml",Complete inhibition
same,endothelial tube formation,"HUVEC cells [4]; HUVEC, all test concentrations 100 μg/ml to 1000 μg/ml",block endothelial tube formation
same,inhibition of healthy unstimulated cells (CC50 experiment),HUVEC,no inhibition
same,inhibition of VEGF stimulated HUVEC cells,HUVEC; VEGF stimulated,dose dependent inhibition
same,"remaining at 0.25 h, 100 μg/ml","[5]; human plasma, 15 minutes, read-out: IS217 remaining",90.7%
same,"remaining at 0.5 h, 100 μg/ml","[5]; human plasma, 30 minutes, read-out: IS217 remaining",105%
same,"remaining at 0.75 h, 100 μg/ml","[5]; human plasma, 45 minutes, read-out: IS217 remaining",85.2%
same,"remaining at 1 h, 100 μg/ml","[5]; human plasma, 60 minutes, read-out: IS217 remaining",91.1%
same,plasma stability,"[5]; human, plasma",stable in human plasma
same,half-life at 100 μg/ml,"[5]; human, plasma, from 60 minutes incubation, read-out: calculated half-life in human plasma",6.92 h
same,"ear thickness (absolute, histopathology, ear punch biopsy)","[6]; IS217 (1.2 mg/kg) < MTX (1.5 mg/kg), p < 0.01",Decreased ear
same,edema and hyperkeratosis,[6]; [7],IS217 decreased
same,"inflammatory cytokines in ear homogenate (ELISA and histopathology score) IL-23, IL-6, TNF-α and MPO",[6]; [7],IS217 decreased
same,inhibitory activity against TPA induced increase in ear thickness,[6]; IS217 alone (SC 1.2 mg/kg q.d. per Table 6),44.77%
same,effect in combination with MTX,[6]; TPA model combination study,good effect
same,absolute ear thickness,[6]; alone as well as in combination with standard drugs,significant reduction
same,inhibition of JAK-STAT pathway,JAK-STAT pathway,No inhibition
same,inhibition of other kinases,other kinases,Moderate to low inhibition
same,inhibition of MAPK1 (MEK 1),MAPK1 (MEK 1),good inhibition
same,activation of Caspase 3,Caspase 3,did not lead to activation
